# Data: patent publication US11207291B2, “Antimicrobial compositions comprising cannabinoids and methods of using the same” (Graphium Biosciences, Inc., priority 2017, dated 2021)
# Key:
# Aspergillus fumigatus [1] = test: Broth microdilution MIC, fungi (Example 4); type: cell-based; details: Aspergillus fumigatus
# Streptococcus pneumoniae [2] = test: Broth microdilution MIC, aerobic bacteria (Example 4); type: cell-based; details: ATCC49619
# Escherichia coli = test: as above; type: cell-based; details: ATCC25922
# [3] = tested on: Staphylococcus aureus (MSSA); test: as above; type: cell-based; details: ATCC 29213 / MSSA
# [4] = tested on: evaluated yeast and fungal isolates; test: Broth microdilution MIC, text summary (Example 1); type: cell-based
# Clostridium difficile [5] = test: Broth microdilution MIC, anaerobic bacteria (Example 4); type: cell-based; details: Clostridioides difficile
# Aspergillus fumigatus [6] = test: Broth microdilution MIC, yeast and fungi (Example 1); type: cell-based; details: Aspergillus fumigatus, isolate MMX 5280 (ATCC MYA-3626)
# Bacteroides fragilis [7] = test: Broth microdilution MIC, anaerobic bacteria (Example 4); type: cell-based; details: ATCC25285, isolate MMX 123 (ATCC 25285)
# E. faecalis ATCC 29212 = test: MIC/MBC testing (Example 5); type: cell-based
# Lactobacillus jensenii [8] = test: Broth microdilution MIC, anaerobic bacteria (Example 4); type: cell-based; details: isolate MMX 4149
# [9] = tested on: Enterococcus faecalis (VRE); test: microbe, parasite or virus in culture; type: cell-based; details: Enterococcus faecalis, VRE
# E. faecalis MMX 848 = test: MIC/MBC testing (Example 5); type: cell-based
# Pseudomonas aeruginosa = test: Broth microdilution MIC, aerobic bacteria (Example 1); type: cell-based
# Clostridium difficile [10] = test: Broth microdilution MIC, anaerobic bacteria (Example 1); type: cell-based; details: Clostridioides difficile
# [11] = Compound precipitation in uninoculated solubility controls (Example 4); type: physicochemical
# Experimental: Un-inoculated solubility control plates for each test media and drug were incubated in parallel with test plates and observed for evidence of drug precipitation. MICs were read where visible growth of the organism was inhibited.
# Streptococcus pyogenes = test: Broth microdilution MIC, aerobic bacteria (Example 1); type: cell-based; details: Streptococcus pyogenes, isolate MMX 404, read-out: MIC
# [12] = tested on: Enterococcus faecalis (VSE); test: Broth microdilution MIC, aerobic bacteria (Example 4); type: cell-based; details: ATCC29212
# Bacteroides fragilis [13] = test: Broth microdilution MIC, anaerobic bacteria (Example 1); type: cell-based; details: Bacteroides fragilis
# Lactobacillus jensenii [14] = test: as above; type: cell-based; details: Lactobacillus jensenii
# [15] = tested on: Staphylococcus aureus (MRSA); test: microbe, parasite or virus in culture; type: cell-based
# S. aureus MMX 757 = test: MIC/MBC testing (Example 5); type: cell-based
# Acinetobacter baumannii = test: Broth microdilution MIC, aerobic bacteria (Example 1); type: cell-based
# S. aureus ATCC 29213 = test: MIC/MBC testing (Example 5); type: cell-based
# S. pneumoniae ATCC 49619 = test: MIC/MBC testing (Example 5); type: cell-based
# Bifidobacterium longum = test: Broth microdilution MIC, anaerobic bacteria (Example 4); type: cell-based; details: isolate MMX 3968
# Streptococcus pneumoniae [16] = test: Broth microdilution MIC, aerobic bacteria (Example 1); type: cell-based; details: Streptococcus pneumoniae
# gram-negative aerobes = test: Broth microdilution MIC, text summary (Example 1); type: cell-based
# strains tested = test: MIC/MBC testing, summary (Example 5); type: cell-based
# [17] = Enterococcus faecalis, ATCC29212
# [18] = ratios of 1-4 are indicative of bactericidal activity
# [19] = read-out: inhibits the growth (IC50)
# [20] = Example 1 summary of findings, read-out: inhibits the growth (IC50)
# [21] = Staphylococcus aureus, ATCC29213
# [22] = Streptococcus pneumoniae, ATCC49619
smiles,measurement,setting,value
"C=C(C)[C@@H]1CCC(C)=C[C@H]1c1c(O)cc(CCCCC)cc1O [CBD, cannabidiol]",MIC,"Aspergillus fumigatus [1]; 48 h, read-out: MIC at 48 hr",> 128 µg/mL
same,MIC,"Aspergillus fumigatus [1]; Example 4, 24 hr, isolate MMX 5280 (MYA-3626), read-out: MIC at 24 hr",> 128 µg/mL
same,MIC,Streptococcus pneumoniae [2],4 µg/mL
same,MIC,Escherichia coli,> 128 µg/mL
same,MIC,[3],2 µg/mL
same,activity against yeast and fungal isolates,[4],Neither the cannabinoid prodrugs or CBD were active
same,MIC,"Clostridium difficile [5]; ATCC700057, Example 4, isolate MMX 4381 (ATCC 700057)",64 µg/mL
same,MIC,"Clostridium difficile [5]; Example 4, isolate MMX 8330",64 µg/mL
same,MIC,"Clostridium difficile [5]; Example 4, isolate MMX 8333",64 µg/mL
same,MIC,"Aspergillus fumigatus [6]; 24 hr, read-out: MIC at 24 hr",> 256 µg/mL
same,MIC,"Aspergillus fumigatus [6]; 48 hr, read-out: MIC at 48 hr",> 256 µg/mL
same,MIC,Bacteroides fragilis [7],> 128 µg/mL
same,MBC,E. faecalis ATCC 29212; [17],2 µg/mL
same,MIC,E. faecalis ATCC 29212; [17],2 µg/mL
same,MBC:MIC,E. faecalis ATCC 29212; [18],1
same,MIC,Lactobacillus jensenii [8],> 128 µg/mL
same,MIC,[9],2 µg/mL
same,IC50,[9]; [19],2 µg/mL
same,MBC,"E. faecalis MMX 848; Enterococcus faecalis, MMX848",2 µg/mL
same,MIC,"E. faecalis MMX 848; Enterococcus faecalis, MMX848",1 µg/mL
same,MBC:MIC,E. faecalis MMX 848; [18],2
same,effect on the gram-negative pathogen,"Pseudomonas aeruginosa; Example 1 summary of findings, Pseudomonas",did not have any effect
same,MIC,"Pseudomonas aeruginosa; Pseudomonas aeruginosa, Example 1, isolate MMX 1380, read-out: MIC",> 256 µg/mL
same,MIC,"Clostridium difficile [10]; ATCC00057, Example 1, isolate MMX 4381 (ATCC 00057)",32 µg/mL
same,MIC,"Clostridium difficile [10]; Example 1, isolate MMX 8330, read-out: MIC",32 µg/mL
same,MIC,"Clostridium difficile [10]; Example 1, isolate MMX 8333, read-out: MIC",32 µg/mL
same,IC50,Clostridium difficile [10]; [19],32 µg/mL
same,precipitation observed (type),[11]; Brucella Broth,none
same,precipitation observed (type),[11]; MHB II,none
same,precipitation observed (type),[11]; MHB II with Blood,none
same,precipitation observed (type),[11]; RPMI,none
same,MIC,Streptococcus pyogenes,16 µg/mL
same,MIC,[12],2 µg/mL
same,MIC,Bacteroides fragilis [13]; ATCC5285,32 µg/mL
same,IC50,Bacteroides fragilis [13]; [20],32 µg/mL
same,MIC,"Lactobacillus jensenii [14]; Example 1, isolate MMX 4149, read-out: MIC",64 µg/mL
same,IC50,"Lactobacillus jensenii [14]; Example 1 summary of findings, read-out: inhibits the growth (IC50 values)",64 µg/mL
same,MIC,[15],2 µg/mL
same,MBC,"S. aureus MMX 757; Staphylococcus aureus, MMX757",1 µg/mL
same,MIC,"S. aureus MMX 757; Staphylococcus aureus, MMX757",1 µg/mL
same,MBC:MIC,S. aureus MMX 757; [18],1
same,MIC,Acinetobacter baumannii; Acinetobacter baumannii,> 256 µg/mL
same,effect on the gram-negative pathogen,"Acinetobacter baumannii; Example 1 summary of findings, Acinetobacter",did not have any effect
same,MBC,S. aureus ATCC 29213; [21],2 µg/mL
same,MIC,S. aureus ATCC 29213; [21],1 µg/mL
same,MBC:MIC,S. aureus ATCC 29213; [18],2
same,MBC,S. pneumoniae ATCC 49619; [22],4 µg/mL
same,MIC,S. pneumoniae ATCC 49619; [22],1 µg/mL
same,MBC:MIC,S. pneumoniae ATCC 49619; [18],4
same,MIC,Bifidobacterium longum,64 µg/mL
same,MIC,"Streptococcus pneumoniae [16]; ATCC49619, Example 1, isolate MMX 1195 (ATCC 49619), read-out: MIC",4 µg/mL
same,IC50,Streptococcus pneumoniae [16]; [20],4 µg/mL
same,activity against gram-negative aerobic bacteria,gram-negative aerobes,inactive
same,biocidal activity against the strains tested,strains tested,overall biocidal
